Here are results for 47 compounds from patent US6825350B2, “Sulfonamide and sulfamide substituted imidazoquinolines and methods for the treatment of periodontal disease using these and other immune response modifiers” (3M Innovative Properties Company, priority 1999, dated 2004).

Each structure is given as a SMILES string. Counter-ions that a name gives are not always drawn. Like-named read-outs stand apart in the source and are kept apart here.

One assay deals with interferon (α). The assay is described as follows: Cytokine induction in human cells: interferon (α) by ELISA. It counts as cell-based. The conditions noted are these: human PBMCs, 18 to 24 hours incubation, ELISA of culture supernatant, read-out: Lowest Effective Concentration (μM) Interferon. In general terms: In an ELISA, binding on a coated surface is turned into a signal by an enzyme label.

The test system of assay [1] is tumor necrosis factor (α). The assay is described as follows: Cytokine induction in human cells: tumor necrosis factor (α) by ELISA. It counts as cell-based. The conditions noted are these: human PBMCs, 18 to 24 hours incubation, ELISA of culture supernatant, read-out: Lowest Effective Concentration (μM) Tumor Necrosis Factor.

As to `CCCCc1nc2c(N)nc3ccccc3c2n1CCCCNS(=O)(=O)c1ccc(C(C)(C)C)cc1` [Example 47], the minimal effective concentration with interferon (α) (Homo sapiens, PBMC) was 0.37 µM; in assay [1] (Homo sapiens, PBMC), over 30 µM.
In the same order, the values of `Cc1cc(C)c(S(=O)(=O)NCCCCn2cnc3c(N)nc4c(c32)CCCC4)c(C)c1` [Example 63] are over 30 µM and over 30 µM.
In the same order, the values of `CCCCc1nc2c(N)nc3ccccc3c2n1CCCCNS(=O)(=O)c1cccc(F)c1` [Example 95] are 0.001 µM and 1 µM.
The like results for `Nc1nc2c(c3c1ncn3CCCCNS(=O)(=O)c1cccc3ccccc13)CCCC2` [Example 70] were, in that order, over 30 µM and over 30 µM.
As to `CCCCc1nc2c(N)nc3ccccc3c2n1CCCCNS(=O)(=O)c1ccccc1Br` [Example 78], the minimal effective concentration with interferon (α) (Homo sapiens, PBMC) is 0.001 µM; in assay [1] (Homo sapiens, PBMC) it was 0.1 µM.
In the same order, the values of `CCCCc1nc2c(N)nc3ccccc3c2n1CCCCNS(=O)(=O)c1ccc([N+](=O)[O-])cc1` [Example 88] are 0.01 µM and 1 µM.
The like results for `CCCCCCCCCCCCCCCCS(=O)(=O)NCCCCn1c(CCCC)nc2c(N)nc3ccccc3c21` [Example 75] were, in that order, over 10 µM and over 10 µM.
The like results for `COCCc1nc2c(N)nc3ccccc3c2n1CCCCN(C)S(=O)(=O)c1c(C)noc1C` [Example 215, N-[4-(4-Amino-2-(2-methoxyethyl)-1H-imidazo[4,5-c]quinolin-1-yl)butyl]-N-methyl-3,5-dimethylisooxazolo-4-sulfonamide Trifluoroacetate] were, in that order, 0.01 µM and 1 µM.
As for `CCCCc1nc2c(N)nc3ccccc3c2n1CCCCNS(=O)(=O)c1ccc(OC)cc1` [Example 37], the minimal effective concentration with interferon (α) (Homo sapiens, PBMC) is 0.01 µM; in assay [1] (Homo sapiens, PBMC), 1.11 µM.
Regarding `Nc1nc2c(c3c1ncn3CCCCNS(=O)(=O)c1ccccc1)CCCC2` [Example 58], the minimal effective concentration in the assay with interferon (α) (Homo sapiens, PBMC) is 3.33 µM; in assay [1] (Homo sapiens, PBMC), over 30 µM.
The like results for `CCCCS(=O)(=O)NCCCCn1cnc2c(N)nc3ccccc3c21` [Example 13, N^1-[4-(4-Amino-1H-imidazo[4,5-c]quinolin-1-y)butyl]-1-butanesulfonamide] were, in that order, 10 µM and over 30 µM.
As to `CCCCc1nc2c(N)nc3ccccc3c2n1CCCCNS(C)(=O)=O` [Example 6, N^1-[4-(4-Amino-2-butyl-1H-imidazo[4,5-c]quinolin-1-yl)butyl]methanesulfonamide], the figures for the minimal effective concentration (in the assay with interferon (α); in assay [1]) were 0.00017 µM and 1.11 µM, respectively.
`COCCc1nc2c(N)nc3c(c2n1CCCCNS(=O)(=O)C[C@@]12CCC(CC1=O)C2(C)C)CCCC3` [Example 212]: the minimal effective concentration in the assay on interferon (α) (Homo sapiens, PBMC) worked out at 0.0001 µM; in assay [1] (Homo sapiens, PBMC), 0.01 µM.
`COc1ccc(S(=O)(=O)NCCCCn2cnc3c(N)nc4c(c32)CCCC4)cc1` [Example 65]: the minimal effective concentration is 3.33 µM in the assay on interferon (α) (Homo sapiens, PBMC) and over 30 µM in assay [1] (Homo sapiens, PBMC).
On to `CCCCc1nc2c(N)nc3ccccc3c2n1CCCCNS(=O)(=O)c1cccs1` [Example 44], for which the minimal effective concentration in the assay on interferon (α) worked out at 0.0015 µM; in assay [1], 1.11 µM.
With `CCCCc1nc2c(N)nc3ccccc3c2n1CCCCNS(=O)(=O)c1c(C)cc(C)cc1C` [Example 45], the minimal effective concentration in the assay with interferon (α) (Homo sapiens, PBMC) is 0.37 µM; in assay [1] (Homo sapiens, PBMC), over 30 µM.
The like results for `COCCc1nc2c(N)nc3ccccc3c2n1CCCCNS(=O)(=O)N(C)C` [Example 218] were, in that order, 0.0001 µM and 1 µM.
In the same order, the values of `CCCCc1nc2c(N)nc3ccccc3c2n1CCCCNS(=O)(=O)c1ccc(F)cc1` [Example 87] are 0.001 µM and 1 µM.
The like results for `CCCCc1nc2c(N)nc3ccccc3c2n1CCCCNS(=O)(=O)c1ccc(C)cc1` [Example 40] were, in that order, 0.0015 µM and 3.33 µM.
For the compound `CCCCc1nc2c(N)nc3ccccc3c2n1CCCCNS(=O)(=O)c1ccc(Cl)s1` [Example 101], the minimal effective concentration stood at 0.01 µM with interferon (α) (Homo sapiens, PBMC) and 10 µM in assay [1] (Homo sapiens, PBMC).
The like results for `CC(C)S(=O)(=O)NCCCCn1cnc2c(N)nc3c(c21)CCCC3` [Example 55] were, in that order, 3.33 µM and over 30 µM.
In the same order, the values of `CCCCc1nc2c(N)nc3ccccc3c2n1CCCCNS(=O)(=O)c1ccc(OC)c(OC)c1` [Example 81] are 0.001 µM and 1 µM.
The like results for `COCCc1nc2c(N)nc3c(c2n1CCCCNS(=O)(=O)c1ccccc1)CCCC3` [Example 210] were, in that order, 0.0001 µM and 1 µM.
For the compound `CCCCc1nc2c(N)nc3ccccc3c2n1CCCCNS(=O)(=O)c1ccc(Br)s1` [Example 99], the minimal effective concentration was 0.1 µM in the assay on interferon (α) (Homo sapiens, PBMC) and 10 µM in assay [1] (Homo sapiens, PBMC).
In the same order, the values of `CCCCc1nc2c(N)nc3ccccc3c2n1CCNS(=O)(=O)c1cccc2ccccc12` [Example 31] are 1.11 µM and over 30 µM.
The like results for `CCCCc1nc2c(N)nc3ccccc3c2n1CCCCNS(=O)(=O)c1ccc(I)cc1` [Example 46] were, in that order, 0.37 µM and over 30 µM.
The like results for `COCCc1nc2c(N)nc3c(c2n1CCCCNS(=O)(=O)N(C)C)CCCC3` [Example 221] were, in that order, 0.0001 µM and 1 µM.
Regarding `CCCCc1nc2c(N)nc3ccccc3c2n1CCCCNS(=O)(=O)c1c(F)c(F)c(F)c(F)c1F` [Example 90], the minimal effective concentration came to 0.01 µM with interferon (α) (Homo sapiens, PBMC) and 1 µM in assay [1] (Homo sapiens, PBMC).
As to `CCCCc1nc2c(N)nc3ccccc3c2n1CCCCNS(C)(=O)=O` [Example 36], the minimal effective concentration with interferon (α) is 0.0015 µM; in assay [1], 3.33 µM.
Consider `CCOCc1nc2c(N)nc3ccccc3c2n1CCNS(=O)(=O)N(C)C` [Example 217], for which the minimal effective concentration was 1 µM in the assay with interferon (α) (Homo sapiens, PBMC) and over 10 µM in assay [1] (Homo sapiens, PBMC).
The like results for `CCCCc1nc2c(N)nc3ccccc3c2n1CCCCNS(=O)(=O)c1c(F)cccc1F` [Example 93] were, in that order, 0.001 µM and 0.1 µM.
The like results for `COCCc1nc2c(N)nc3ccccc3c2n1CCCCNS(=O)(=O)c1ccc(OC(F)(F)F)cc1` [Example 154] were, in that order, 0.001 µM and 10 µM.
In the same order, the values of `CCCCc1nc2c(N)nc3c(c2n1CCCCNS(=O)(=O)c1cccc2c(N(C)C)cccc12)CCCC3` [Example 206] are 1 µM and over 10 µM.
On to `CCCCc1nc2c(N)nc3c(c2n1CCCCNS(=O)(=O)N(C)C)CCCC3` [Example 220], for which the minimal effective concentration with interferon (α) (Homo sapiens, PBMC) was determined as 0.0001 µM; in assay [1] (Homo sapiens, PBMC) it was 1 µM.
For `COCCc1nc2c(N)nc3c(c2n1CCCCNS(=O)(=O)c1cccc2c(N(C)C)cccc12)CCCC3` [Example 213], the minimal effective concentration with interferon (α) (Homo sapiens, PBMC) stood at 0.0001 µM; in assay [1] (Homo sapiens, PBMC) it was 1 µM.
The like results for `CCS(=O)(=O)NCCCCn1c(CCOC)nc2c(N)nc3c(c21)CCCC3` [Example 207] were, in that order, 0.001 µM and 1 µM.
In the case of `CCCCc1nc2c(N)nc3ccccc3c2n1CCNS(=O)(=O)c1ccccc1` [Example 20], the minimal effective concentration stood at 0.12 µM in the assay on interferon (α) (Homo sapiens, PBMC) and 3.33 µM in assay [1] (Homo sapiens, PBMC).
The like results for `CCCCc1nc2c(N)nc3ccccc3c2n1CCCCNS(=O)(=O)c1ccc(Cl)c(Cl)c1` [Example 48] were, in that order, 0.37 µM and 10 µM.
As to `CCCS(=O)(=O)NCCCCn1c(CCOC)nc2c(N)nc3ccccc3c21` [Example 116], the minimal effective concentration in the assay with interferon (α) (Homo sapiens, PBMC) is 0.001 µM; in assay [1] (Homo sapiens, PBMC) it was 1 µM.
In the same order, the values of `CCCCc1nc2c(N)nc3ccccc3c2n1CCCCNS(=O)(=O)c1cccc(C(F)(F)F)c1` [Example 80] are 1 µM and 10 µM.
In the same order, the values of `CCCCc1nc2c(N)nc3c(c2n1CCCCNS(=O)(=O)c1cccs1)CCCC3` [Example 204] are 0.0001 µM and 1 µM.
On to `CCCCc1nc2c(N)nc3ccccc3c2n1CCCCNS(=O)(=O)c1ccc2ccccc2c1` [Example 42], for which the minimal effective concentration in the assay with interferon (α) (Homo sapiens, PBMC) is 0.01 µM; in assay [1] (Homo sapiens, PBMC) it was over 30 µM.
In the same order, the values of `COCCc1nc2c(N)nc3ccccc3c2n1CCCCNS(=O)(=O)c1ccc(C#N)cc1` [Example 160] are 0.001 µM and 1 µM.
In the same order, the values of `COCCc1nc2c(N)nc3c(c2n1CCCCNS(=O)(=O)Cc1ccccc1)CCCC3` [Example 211] are 0.0001 µM and 1 µM.
The like results for `COCCc1nc2c(N)nc3ccccc3c2n1CCCCNS(=O)(=O)c1ccccc1Cl` [Example 127] were, in that order, 0.0001 µM and 10 µM.
Turning to `COCCc1nc2c(N)nc3ccccc3c2n1CCCCNS(=O)(=O)c1cccc(Br)c1` [Example 184], the minimal effective concentration in the assay on interferon (α) (Homo sapiens, PBMC) was determined as 0.0001 µM; in assay [1] (Homo sapiens, PBMC), 1 µM.
In the same order, the values of `COCCc1nc2c(N)nc3ccccc3c2n1CCCCNS(=O)(=O)Cc1ccccc1[N+](=O)[O-]` [Example 138] are 0.0001 µM and 10 µM.
